Measurements from US11472843B2, “Malacidins and methods of use” (The Rockefeller University, priority 2017, dated 2022).
Converted amounts (≈) assume the structure as drawn. Where two headings read alike, the source gives them in different places.

Legend:
[1] = system: UDP-MurNAc-pentapeptide in MRSA USA300; test: UDP-MurNAc-pentapeptide accumulation assay; format: cell-based, Staphylococcus aureus; settings: 10 μg ml^−1, 60 min, UPLC-MS
Protocol: The intracellular accumulation of the cell wall precursor UDP-MurNAc-pentapeptide after treatment of MRSA USA300 with malacidin was assessed as previously described (Schneider et al., […], Antimicrob Agents Ch 53:1610-18). In brief, single colonies of MRSA USA300 were grown in LB media with and without 15 mM CaCl2 to an OD600 nm of 0.6. […] of cells and medium were incubated with a final concentration of 130 μg ml^−1 chloramphenicol for 15 min at 37° C. Antibiotics to be assayed were added at 10 μg ml^−1 and incubated for 60 min at 37° C. Vancomycin, known to form a complex with lipid II, was used as a positive control. Cells were collected by centrifugation, and resuspended in 30 μl dH2O and incubated in boiling water for 15 min. The cell extract was then centrifuged at 14,000 g. Supernatant was analysed for UDP-linked cell wall precursors by a UPLC-MS system. Experiments were performed with biological replicates.

[2] = system: E. faecium Com15; test: MIC assay, E. faecium Com15; format: cell-based, Enterococcus faecium; settings: Enterococcus faecium Com15
Protocol: (§1) MIC assays were performed in duplicate in 96-well microtiter plates on the basis of the protocol recommended by the Clinical and Laboratory Standards Institute (Cockerill, 2012, Clinical and Laboratory Standards Institute). All presented data are the average of at least three independent assays. Stock solutions of malacidin or daptomycin (2 mg ml^−1 in H2O) were added to the first well in a row and serially diluted (twofold per transfer) across the microtiter plate. CaCl2 was supplemented to media at a final concentration of 15 mM and fetal bovine serum (ATCC) was added to media (1:10) to test the effect of serum. Overnight cultures of bacteria were diluted 5,000-fold, and 50 μl was used as an inoculum in each well. MIC values were determined by visual inspection after 18 h incubation (30° C., static growth). For the enhanced calcium titration experiments, standard MIC assays were performed with methicillin-resistant Staphylococcus aureus (MRSA) PFGE strain type USA300 in media supplemented with CaCl2 at: 25.0, 18.8, 14.1, 7.03, 3.52, 2.50, 1.76, 0.880, 0.440, 0.250 and 0 mM. To assess the effects of monovalent and divalent cations on malacidin activity, standard MIC assays were performed with MRSA USA300 in media supplemented with 15 mM CaCl2, MgCl2, MnCl2, ZnCl2, SrCl2, NaCl and KCl. To evaluate the effects of pulmonary surfactants on activity against a community-acquired pneumonia-causing pathogen, standard MIC assays were performed with Streptococcus pneumoniae TCH8431 in media supplemented with both 15 mM CaCl1 and Survanta (beractant) at a final concentration of 5, 1, 0.5, 0.25 or 0% (volume/volume (v/v) percent).

[3] = system: Acinetobacter baumannii ATCC 17978; test: MIC assay, A. baumannii; format: cell-based
Protocol: as §1

[4] = system: S. aureus USA300; test: MIC assay, S. aureus USA300 (MRSA); format: cell-based, Staphylococcus aureus; settings: Staphylococcus aureus USA300, β-lactams (Methicillin, Oxacillin, Penicillin)
Protocol: as §1

[5] = system: Escherichia coli DH5α; test: MIC assay, E. coli DH5α; format: cell-based
Protocol: as §1

[6] = system: Candida albicans ATCC 1884; test: MIC assay, C. albicans; format: cell-based; settings: Candida albicans ATCC 1884
Protocol: as §1

[7] = system: Klebsiella pneumonia ATCC 10031; test: MIC assay, Klebsiella pneumonia; format: cell-based
Protocol: as §1

[8] = system: Salmonella enterica IR 715; test: MIC assay, Salmonella enterica; format: cell-based
Protocol: as §1

[9] = system: Cryptococcus neoformans ATCC 32045; test: MIC assay, C. neoformans; format: cell-based; settings: Cryptococcus neoformans ATCC 32045
Protocol: as §1

[10] = system: Pseudomonas aeruginosa PAO1; test: MIC assay, P. aeruginosa; format: cell-based
Protocol: as §1

[11] = system: S. aureus NRS100; test: MIC assay, S. aureus NRS100; format: cell-based, Staphylococcus aureus; settings: Staphylococcus aureus NRS100; β-lactams, Tetracycline; read-out: MIC
Protocol: as §1

[12] = system: S. aureus NRS146; test: MIC assay, S. aureus NRS146; format: cell-based, Staphylococcus aureus; settings: NRS 146 / VISA; Staphylococcus aureus NRS146; β-lactams, Vancomycin (VISA); read-out: MIC
Protocol: as §1

[13] = system: Escherichia coli BAS849; test: MIC assay, E. coli BAS849; format: cell-based
Protocol: as §1, with “To evaluate the effects of pulmonary surfactants on activity against a community-acquired pneumonia-causing pathogen, standard MIC assays were performed with Streptococcus pneumoniae TCH8431 in media supplemented with both 15 mM CaCl1 and Survanta (beractant) at a final concentration of 5, 1, 0.5, 0.25 or 0% (volume/volume (v/v) percent).” left out

[14] = system: S. aureus BAA-42; test: MIC assay, S. aureus BAA-42; format: cell-based, Staphylococcus aureus; settings: BAA42; Staphylococcus aureus BAA-42; β-lactams; read-out: MIC
Protocol: as §1

[15] = system: Streptococcus pneumoniae TCH8431; test: MIC assay, S. pneumoniae; format: cell-based; settings: Streptococcus pneumoniae TCH8431; read-out: MIC
Protocol: as §1

[16] = system: S. aureus NRS140; test: MIC assay, S. aureus NRS140; format: cell-based, Staphylococcus aureus; settings: Staphylococcus aureus NRS140; β-lactams, Erythromycin, Spectinomycin; read-out: MIC
Protocol: as §1

[17] = system: Bacillus subtilis 168 IAI; test: MIC assay, B. subtilis; format: cell-based; settings: Bacillus subtilis 168 IAI; read-out: MIC
Protocol: as §1

[18] = system: MRSA USA300; test: Membrane leakage assay (SYTOX green); format: cell-based, Staphylococcus aureus; settings: 20 μg ml^−1
Protocol: The effects of malacidin on membrane integrity was assessed using SYTOX green. In brief, single colonies of MRSA USA300 were grown in LB media with and without 15 mM CaCl2 to an OD600 nm of 0.35. Nine hundred microlitres of cells were mixed with 100 μL of 17 μM SYTOX green dye (Thermo Fisher). The resulting mixture was incubated for 5 min at 22° C., and then distributed to a microtiter plate at 50 μl per well. An initial reading of fluorescence pre-antibiotic addition was measured at excitation and emission wavelengths of 488 nm and 523 nm, respectively. Fifty microlitres of antibiotics was added to respective wells at a final concentration of 20 μg ml^−1. Measurements were immediately collected for 10 min. To assess the effects of malacidin on membrane depolarization, similar assays were set up using the membrane potential probe, DiBAC4 (bis-(1,3-dibutylbarbituric acid)trimethine oxonol). Single colonies of MRSA USA300 were grown in LB media with and without 15 mM CaCl2 to an OD600 nm of 0.35. Nine hundred microlitres of cells were mixed with 100 μl of 20 μg ml DiBAC4dye (Thermo Fisher). The resulting mixture was incubated for 5 min at 22° C., and then distributed to a microtiter plate at 50 μl per well. An initial reading of fluorescence pre-antibiotic addition was measured at excitation and emission wavelengths of 492 nm and 515 nm, respectively. Fifty microlitres of antibiotics was added to respective wells at a final concentration of 20 μg ml^−1. Measurements were immediately collected for 10 min. Representative examples from three technical replicates are shown.

[19] = system: S. aureus NRS108; test: MIC assay, S. aureus NRS108; format: cell-based, Staphylococcus aureus; settings: Staphylococcus aureus NRS108; β-lactams, Gentamicin, Kanamycin; read-out: MIC
Protocol: as §1

[20] = system: S. aureus COL; test: MIC assay, S. aureus COL; format: cell-based, Staphylococcus aureus; settings: Staphylococcus aureus COL; β-lactams; read-out: MIC
Protocol: as §1

[21] = system: Streptococcus pneumoniae TCH8431; settings: from Silverman et al., 2005; cited from earlier work
[22] = system: E. faecium VRE; test: MIC assay, E. faecium VRE; format: cell-based, Enterococcus faecium; settings: Enterococcus faecium VRE; Vancomycin (VRE); read-out: MIC
Protocol: as §1

Compound: CN[C@H](CC(C)C)C(=O)N[C@H]1C(=O)N[C@@H](CC(N)=O)C(=O)N[C@H]2C(=O)N[C@H]3C(=O)N[C@H](C(=O)N[C@H](C(=O)O)c4cc(O)cc(O)c4-c4cc3ccc4O)[C@H](O)c3ccc(c(Cl)c3)Oc3cc2cc(c3O[C@@H]2O[C@H](CO)[C@@H](O)[C@H](O)[C@H]2O[C@H]2C[C@](C)(N)[C@H](O)[C@H](C)O2)Oc2ccc(cc2Cl)[C@H]1O [vancomycin, reference compound]
- Accumulation of cell wall intermediate UDP-MurNAc-pentapeptide [1]: accumulation of the cell wall intermediate UDP-MurNAc-pentapeptide

Compound: malacidin B
- MIC [2]: 0.8 to 2.0 µg/mL
- MIC ([3]; range of at least three independent experiments): >100 µg/mL
- MIC [4]: 0.4 to 0.8 µg/mL
- MIC [5]: >100 µg/mL
- MIC [6]: >100 µg/mL
- MIC [7]: >100 µg/mL
- MIC [8]: >100 µg/mL
- MIC [9]: >100 µg/mL
- MIC [10]: >100 µg/mL

Compound: CCCCCCCCCC(=O)N[C@@H](Cc1c[nH]c2ccccc12)C(=O)N[C@H](CC(N)=O)C(=O)N[C@@H](CC(=O)O)C(=O)N[C@@H]1C(=O)NCC(=O)N[C@@H](CCCN)C(=O)N[C@@H](CC(=O)O)C(=O)N[C@H](C)C(=O)N[C@@H](CC(=O)O)C(=O)NCC(=O)N[C@H](CO)C(=O)N[C@@H]([C@H](C)CC(=O)O)C(=O)N[C@@H](CC(=O)c2ccccc2N)C(=O)O[C@@H]1C [Daptomycin, daptomycin, reference compound]
- MIC [11]: 0.2 to 0.8 µg/mL (≈ 0.123 to 0.494 µM)
- MIC ([2]; read-out: MIC): 0.4 to 2 µg/mL (≈ 0.247 to 1.23 µM)
- MIC [12]: 0.2 to 0.8 µg/mL (≈ 0.123 to 0.494 µM)
- MIC ([3]; ATCC17978, range of at least three independent experiments, read-out: MIC): > 100 µg/mL
- MIC ([4]; read-out: MIC): 0.2 to 0.8 µg/mL (≈ 0.123 to 0.494 µM)
- MIC [13]: 50 to 100 µg/mL (≈ 30.9 to 61.7 µM)
- MIC [14]: 0.2 to 0.8 µg/mL (≈ 0.123 to 0.494 µM)
- MIC [15]: 0.1 to 0.2 µg/mL (≈ 0.0617 to 0.123 µM)
- MIC [16]: 0.2 to 0.8 µg/mL (≈ 0.123 to 0.494 µM)
- MIC [17]: 0.2 to 0.4 µg/mL (≈ 0.123 to 0.247 µM)
- MIC ([5]; read-out: MIC): > 100 µg/mL
- MIC ([6]; ATCC1884, read-out: MIC): > 100 µg/mL
- MIC ([7]; Klebsiella pneumoniae, ATCC10031, read-out: MIC): > 100 µg/mL
- MIC ([8]; IR715, read-out: MIC): > 100 µg/mL
- MIC ([9]; ATCC32045, read-out: MIC): > 100 µg/mL
- MIC ([10]; read-out: MIC): > 100 µg/mL
- Membrane leakage (SYTOX green or DiBAC4) ([18]; absence of calcium supplementation): No membrane leakage
- Membrane leakage (SYTOX green fluorescence) ([18]; with calcium (15 mM CaCl2)): rapid increase in fluorescence
- MIC [19]: 0.2 to 0.8 µg/mL (≈ 0.123 to 0.494 µM)
- MIC [20]: 0.2 to 0.8 µg/mL (≈ 0.123 to 0.494 µM)
- Activity in the presence of pulmonary surfactants [21]: loss of activity
- MIC [22]: 0.4 to 2 µg/mL (≈ 0.247 to 1.23 µM)
